Experiments:
Staphylococcus aureus = experiment: Minimum inhibitory concentration and synergistic effect (Kull) against Staphylococcus aureus; format: cell-based; conditions: for QA (minimum inhibitory concentration of the pure substance A): pure sorbitan monocaprylate
From the text: (§1) Calculation of the synergistic effect according to the formula Qa/QA+Qb/QB=SE (synergistic effect, according to F. C. Kull et al., Applied Microbiology 1961, 9, 538), where Qa=minimum inhibitory concentration of the compound A in % in the mixture used, QA=minimum inhibitory concentration of the pure substance A, Qb=minimum inhibitory concentration of the compound B in % in the mixture used, and QB=minimum inhibitory concentration of the pure substance B.
(§2) Evaluation of the synergistic effect: where an SE>1 is obtained, there is an antagonistic effect; if SE=1, then the compounds are neutral in their behavior toward one another, and if SE<1, there is a synergistic effect.
(§3) Mixtures of sorbitan monocaprylate and phenoxyethanol or benzyl alcohol, in accordance with Examples 1) and 2), were investigated. The results with respect to synergism are set out in Tables A and B. “MIC blend” here is the minimum inhibitory concentration of the respective blend.

Aspergillus brasiliensis = experiment: Minimum inhibitory concentration and synergistic effect (Kull) against Aspergillus brasiliensis; format: cell-based; conditions: for QA (minimum inhibitory concentration of the pure substance A): pure sorbitan monocaprylate
From the text: as §1, §2, §3

[1] = Table A, sorbitan monocaprylate in 50:50 blend with phenoxyethanol
[2] = Table B, sorbitan monocaprylate in 50:50 blend with benzyl alcohol

## sorbitan monocaprylate
Staphylococcus aureus; Table A
  QA (minimum inhibitory concentration of the pure substance A): 0.25%
Staphylococcus aureus; [1]
  Qa (minimum inhibitory concentration of compound A in the mixture used): 0.0315%
Staphylococcus aureus; Table B
  QA (minimum inhibitory concentration of the pure substance A): 0.25%
Staphylococcus aureus; [2]
  Qa (minimum inhibitory concentration of compound A in the mixture used): 0.016%
Aspergillus brasiliensis; Table A
  QA (minimum inhibitory concentration of the pure substance A): 0.016%
Aspergillus brasiliensis; [1]
  Qa (minimum inhibitory concentration of compound A in the mixture used): 0.004%
Aspergillus brasiliensis; Table B
  QA (minimum inhibitory concentration of the pure substance A): 0.016%
Aspergillus brasiliensis; [2]
  Qa (minimum inhibitory concentration of compound A in the mixture used): 0.004%
